From US20220380375A1, “SUBSTITUTED AROMATIC FUSED RING DERIVATIVE AND COMPOSITION COMPRISING SAME, AND USE THEREOF” (Shenzhen TargetRx, Inc., priority 2019, published 2022)
Marks after values point to notes of the source that are not given here.

Experiments:
[1] = Safety assay (body weight, tolerability) in Ba/F3 KIF5B-RET cell line tumor model; format: in vivo; details: for Number of animals at the beginning/end of assay: 10 mg/kg p.o. QD × 14; for Average weight g (x ± S), Day 0 of administration: 10 mg/kg p.o. QD × 14, day 0 (baseline); for Average weight g (x ± S), Day 14 of administration / Weight change rate (%), Day 14 of administration: 10 mg/kg p.o. QD × 14, day 14; for tolerability (weight loss, drug withdrawal, drug toxicity): during the treatment
Protocol: (§1) Assay methods: 1) Ba/F3 KIF5B-RET and Ba/F3 KIF5B-RET^G810R cells were respectively resuscitated and Cultured in vitro, and 3×10^7 cells of each type were obtained. 2) 60 female NPSG mice aged 6-8 weeks were adaptively bred for 1 week and then weighed. 4) After inoculation, tumor volume and body weight were measured once a week. When average tumor volume reached about […], mice inoculated with each type of Ba/F3 cells were randomly divided into 7 groups according to tumor volume and body weight, with 3 mice in each group. The administration was started immediately after grouping. The date of start of administration was regarded as day 0. Informations on administration and grouping were shown in Tables 5 and 6.5) After the start of the administration, the body weight and tumor volume of mice were measured twice a week. 6) After the end of the administration, the assay was over.
(§2) Assay observation and data collection: After tumor inoculation, morbidity and death of animals were observed every working day. Daily observation included tumor growth and effects of drugs on laboratory animals, such as changes in activity, changes in feeding and drinking, weight loss, changes in appearance of hair and eye, death and other clinical symptoms. Formula for calculating tumor volume is: tumor volume (mm^3)=½×(a×b^2) (wherein a represents the long diameter and b represents the short diameter)

[2] = Safety assay (body weight, tolerability) in Ba/F3 KIF5B-RET^G810R cell line tumor model; format: in vivo; details: for Number of animals at the beginning/end of assay: 25 mg/kg p.o. QD × 13; for Average weight g (x ± S), Day 0 of administration: 25 mg/kg p.o. QD × 13, day 0 (baseline); for Average weight g (x ± S), Day 13 of administration / Weight change rate (%), Day 13 of administration: 25 mg/kg p.o. QD × 13, day 13; for tolerability (weight loss, drug withdrawal, drug toxicity): during the treatment
Protocol: as §1, §2

[3] = target: T1, Ret wt (Homo sapiens, UniProt P07949); test: Inhibition of kinase, Ret wt (HTRF KinEASE-TK); format: biochemical
T1 construct: purchased Carna 08-159-10 ug
T1 sequence (P07949 29-1114): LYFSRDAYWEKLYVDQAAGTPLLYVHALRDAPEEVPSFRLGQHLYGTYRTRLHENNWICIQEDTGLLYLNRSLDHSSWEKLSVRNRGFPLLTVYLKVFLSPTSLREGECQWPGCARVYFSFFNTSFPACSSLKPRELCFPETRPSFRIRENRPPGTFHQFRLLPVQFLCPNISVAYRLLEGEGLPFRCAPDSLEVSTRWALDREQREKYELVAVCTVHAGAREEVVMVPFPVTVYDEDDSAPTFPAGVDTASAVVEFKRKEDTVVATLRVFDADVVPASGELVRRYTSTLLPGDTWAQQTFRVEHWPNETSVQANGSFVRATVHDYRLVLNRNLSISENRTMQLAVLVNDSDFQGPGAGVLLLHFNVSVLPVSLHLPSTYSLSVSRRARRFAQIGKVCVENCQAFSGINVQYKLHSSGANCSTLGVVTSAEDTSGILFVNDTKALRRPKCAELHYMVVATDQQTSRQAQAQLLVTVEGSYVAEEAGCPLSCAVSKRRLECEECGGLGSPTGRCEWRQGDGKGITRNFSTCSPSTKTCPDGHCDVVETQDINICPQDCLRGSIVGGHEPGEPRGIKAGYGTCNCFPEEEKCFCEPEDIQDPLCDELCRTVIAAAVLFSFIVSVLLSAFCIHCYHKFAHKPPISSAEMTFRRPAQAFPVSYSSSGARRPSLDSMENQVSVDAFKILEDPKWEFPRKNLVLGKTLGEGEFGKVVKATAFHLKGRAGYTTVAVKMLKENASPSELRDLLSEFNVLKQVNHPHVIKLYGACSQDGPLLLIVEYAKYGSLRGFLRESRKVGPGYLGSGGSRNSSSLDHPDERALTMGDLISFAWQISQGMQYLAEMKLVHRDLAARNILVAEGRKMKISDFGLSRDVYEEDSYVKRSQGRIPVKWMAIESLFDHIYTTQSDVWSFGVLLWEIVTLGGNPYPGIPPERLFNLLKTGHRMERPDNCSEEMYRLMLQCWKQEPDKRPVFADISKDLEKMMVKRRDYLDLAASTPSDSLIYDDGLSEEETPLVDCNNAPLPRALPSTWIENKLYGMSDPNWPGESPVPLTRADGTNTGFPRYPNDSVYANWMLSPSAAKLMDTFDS
Protocol: (§3) Ret wt (Carna, Cat. No. 08-159-10 ug), RET (V804M), Active (Signalchem. Cat. No. R02—12GG), HTRF KinEASE-TK kit (Cisbio, Cat. No.62TK0PEC), CEP-32496 (MCE, Cat. No. HY-15200), ATP (Sigma. Cat. No. A7699), DMSO (Sigma, Cat. No. D8418-1L), DTT (Sigma, Cat. No. D0632), MgCl2(Sigma, Cat. No. M1028), 384-well plate (Labcyte, Cat. No. P-05525-BC).
(§4) Formulation of compound: The test compounds were dissolved in DMSO to obtain 10 mM stock solutions, which were then serially diluted 3-fold in DMSO to obtain 10 concentrations. At the time of addition, the compound was further diluted 10-fold with buffer.
(§5) In 5×kinase buffer A, Ret wt or RET V804M kinase was mixed with different concentrations of compounds prepared by pre-dilution for 10 minutes. Each concentration was tested in duplicate. The corresponding substrate and ATP were added, and reaction was performed at room temperature for 20 minutes (negative and positive controls were provided: the negative control was a blank control, and the positive control was CEP-32496 (Agerafenib)). After completion of the reaction, detection reagents (reagents in the HTRF KinEASE-TK kit) were added. After incubating for 30 minutes at room temperature, enzyme activity in the presence of various concentrations of the compounds of the present disclosure was determined by Envision microplate reader, and inhibitory activity of different concentrations of the compounds on enzyme activity was calculated. The inhibitory activity of different concentrations of the compounds on enzyme activity was fitted by Graphpad 5.0 software, and the IC50 value was calculated.

[4] = system: Ba/F3 KIF5B-RET cell line tumor model; test: Anti-tumor effect assay in Ba/F3 KIF5B-RET cell line tumor model (allograft); format: in vivo, female NPSG mice; details: for Tumor volume (x ± S), Day 0 of administration: 10 mg/kg p.o. QD × 14, day 0 (baseline); for TGI (%), Day 14 of administration / Tumor volume (x ± S), Day 14 of administration: 10 mg/kg p.o. QD × 14, day 14
Description: (§6) The efficacy of compounds of the present disclosure in female NPSG mouse allograft models of two B-cell lymphoma cell lines Ba/F3 KIF5B-RET and Ba/F3 KIF5B-RET^G810R was verified.
(§7) Assay animals: Female NPSG mice, 6-8 weeks old (age of mice at the time of tumor cell inoculation), weighing 18-20 g, 60 mice, purchased from Shanghai Jihui Laboratory Animal Care Co., Ltd.
as §1, §2
(§8) Relative tumor inhibition rate TGI (%): TGI %=(1−T/C)×100%. T/C % is relative tumor proliferation rate, that is, a percentage value of relative tumor volume between treatment group and control group at a certain point in time. T and C are relative tumor volume (RTV, that is, the […] tumor volume at this time point and tumor volume at day 0) of treatment group and control group at a certain point in time, respectively.
(§9) Statistical analysis: For pairwise comparison, a T-Test analysis method was used, and for comparison of three or more groups, a One-Way ANOVA method was used. For comparison of potential synergistic effects, a Two-way ANOVA was used. SPSS 24.0 was used for all data. A p value less than 0.05 was considered a significant difference.

[5] = target: T2, RET V804M (Homo sapiens, UniProt P07949, V804M); test: Inhibition of kinase, RET V804M (HTRF KinEASE-TK); format: biochemical
T2 construct: purchased Signalchem R02—12GG
T2 sequence (P07949 29-1114 V804M): as the sequence (P07949 29-1114) above, with V776M counted along it
Protocol: as §3, §4, §5

[6] = system: Ba/F3 KIF5B-RET^G810R cell line tumor model; test: Anti-tumor effect assay in Ba/F3 KIF5B-RET^G810R cell line tumor model (allograft); format: in vivo, female NPSG mice; details: for Tumor volume (x ± S), Day 0 of administration / Tumor volume (x ± S), Day 13 of administration / TGI (%), Day 13 of administration: Ba/F3 KIF5B-RET^G810R model; for Tumor volume (x ± S), Day 0 of administration: 25 mg/kg p.o. QD × 13, day 0 (baseline); for Tumor volume (x ± S), Day 13 of administration / TGI (%), Day 13 of administration: 25 mg/kg p.o. QD × 13, day 13; for TGI (%), Day 13 of administration: TGI more than 100% = decrease in tumor volume; for relative tumor inhibition rate TGI (%): day 13 of administration, AD80 group 25 mg/kg
Description: as §6, §7, §1, §2, §8, §9

Q: For `CC(C)n1nc(-c2ccc(CC(=O)Nc3cc(C(C)(C)C(F)(F)F)on3)c(F)c2)c2c(N)ncnc21` [Compound T-6, 2-(4-(4-amino-1-isopropyl-1H-pyrazolo[3,4-d]pyrimidin-3-yl)-2-fluorophenyl)-N-(5-(1,1,1-trifluoro-2-methylprop-2-yl)isoxazol-3-yl)acetamide], which “Number of animals at the beginning/end of assay” value [1] is on record?
A: The value was 3/3.

Q: And the “Average weight g (x ± S), Day 0 of administration” value [1]?
A: The value was 19.3 ± 0.57 g.

Q: What about the “Average weight g (x ± S), Day 14 of administration” value [1] of the same molecule?
A: Its value is 21 ± 0.91 g.

Q: What about the “Weight change rate (%), Day 14 of administration” value [1] of the same molecule?
A: The value was 8.8%.

Q: And the “tolerability (weight loss, drug withdrawal, drug toxicity)” value [1]?
A: Its value is “well tolerated”.

Q: What about the “Number of animals at the beginning/end of assay” value [2] of the same molecule?
A: Its value is 3/3.

Q: And the “Average weight g (x ± S), Day 0 of administration” value [2]?
A: Its value is 19.4 ± 0.66 g.

Q: What about the “Average weight g (x ± S), Day 13 of administration” value [2] of the same molecule?
A: The value was 22.4 ± 0.46 g.

Q: And the “Weight change rate (%), Day 13 of administration” value [2]?
A: Its value is 15.75%.

Q: What about the “tolerability (weight loss, drug withdrawal, drug toxicity)” value [2] of the same molecule?
A: The value was “well tolerated”.

Q: What about the IC50 [3] of the same molecule?
A: Its IC50 is no more than 0.5 nM.

Q: What about the “Tumor volume (x ± S), Day 0 of administration” value [4] of the same molecule?
A: The value was 104 ± 3.61 mm^3.

Q: What about the “TGI (%), Day 14 of administration” value [4] of the same molecule?
A: The value was 99.7%.

Q: And the “Tumor volume (x ± S), Day 14 of administration” value [4]?
A: Its value is 108.7 ± 31.33 mm^3.

Q: And the IC50 [5]?
A: Its IC50 is 0.5 to 1 nM.

Q: What about the “Tumor volume (x ± S), Day 0 of administration” value [6] of the same molecule?
A: The value was 93 ± 8.33 mm^3.

Q: And the “Tumor volume (x ± S), Day 13 of administration” value [6]?
A: The value was 89.7 ± 4.48 mm^3.

Q: What about the “TGI (%), Day 13 of administration” value [6] of the same molecule?
A: Its value is 100.9%#.

Q: What about the “relative tumor inhibition rate TGI (%)” value [6] of the same molecule?
A: The value was 100.9%.

Q: What does the source list for `CC(C)n1cc(-c2ccc(CC(=O)Nc3cc(C(C)(C)C(F)(F)F)on3)cc2)c2c(N)ncnc21` [Compound T-3, 2-(4-(4-amino-7-isopropyl-7H-pyrrolo[2,3-d]pyrimidin-5-yl)phenyl)-N-(5-(1,1,1-trifluoro-2-methylprop-2-yl)isoxazol-3-yl)acetamide]?
A: Number of animals at the beginning/end of assay [1]: 3/3; Average weight g (x ± S), Day 0 of administration [1]: 19.6 ± 0.84 g; Average weight g (x ± S), Day 14 of administration [1]: 21.5 ± 0.7 g; Weight change rate (%), Day 14 of administration [1]: 9.8%; tolerability (weight loss, drug withdrawal, drug toxicity) [1]: well tolerated; Number of animals at the beginning/end of assay [2]: 3/3; Average weight g (x ± S), Day 0 of administration [2]: 19.9 ± 1.18 g; Average weight g (x ± S), Day 13 of administration [2]: 23.1 ± 1.49 g; Weight change rate (%), Day 13 of administration [2]: 16.01%; tolerability (weight loss, drug withdrawal, drug toxicity) [2]: well tolerated; IC50 [3]: ≤ 0.5 nM; Tumor volume (x ± S), Day 0 of administration [4]: 104 ± 10.44 mm^3; TGI (%), Day 14 of administration [4]: 96.3%; Tumor volume (x ± S), Day 14 of administration [4]: 153.7 ± 13.22 mm^3; IC50 [5]: 1 to 10 nM; Tumor volume (x ± S), Day 0 of administration [6]: 102 ± 7.77 mm^3; Tumor volume (x ± S), Day 13 of administration [6]: 132.7 ± 11.78 mm^3; TGI (%), Day 13 of administration [6]: 91.6%; relative tumor inhibition rate TGI (%) [6]: 91.6%
